According to US12071411B2, “Inhibitors of HIF-2α and methods of use thereof” (ARCUS BIOSCIENCES, INC., priority 2021, dated 2024):
pIC50: −log10 of the molar value.

How the values were obtained:
HIF-2α [1] = biological target: T1, HIF-2α (Homo sapiens, UniProt Q99814); experiment: HIF-2α Luciferase Reporter Assay (serum free) in HIF-Luc-786-0 cells; type: cell-based; details: Opti-MEM, 786-0 reporter cells, 20 hours incubation
Method in brief: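 786-0 cells stably transduced with HIF luciferase reporter, 20,000 cells/well in serum-free Opti-MEM, compounds (50 uM downward, 1% DMSO) 20 h at 37 °C. ONE-Glo luminescence normalized to DMSO and no-cell controls; IC50 from four-parameter fit.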

HIF-2α [2] = biological target: T1, HIF-2α; experiment: HIF-2α Luciferase Reporter Assay (serum), HRE-luciferase 786-0 cells in 100% human serum; type: cell-based; details: for pIC50: 100% human serum, 786-0 reporter cells, overnight incubation, read-out: Serum Potency; for Serum Shift (approximate): ratio of IC50 in 100% serum to IC50 in serum free conditions
Experimental: Generation of HIF-2α Luciferase 786-0 Cell Line:
Stable cell lines were generated by transducing 786-0 cells (ATCC, CRL-1932) with Cignal Lenti HIF Luc Reporter lentivirus (CLS-007L, Qiagen) according to the manufacturer's guidelines. In brief, 0.3×10^6 786-0 cells were transduced with lentivirus at a multiplicity of infection (MOI) of 25 for 24 hours. After transduction, cells were replenished with fresh RPMI 1640 Medium (Cat. No. 11875085, Thermo Fisher) supplemented with 10% FBS (Cat. No. A3160502, Gibco), 2 mM GlutaMAX™ (Cat. No. 35050-061, Invitrogen) and 100 units of penicillin and 100 μg of streptomycin/mL (Cat. No 15070063, Thermo Fisher) for another 24 hours. Antibiotic selection was performed in cell media containing 4 μg/mL of puromycin. After 7 days of antibiotic selection, stable pools of surviving cells were expanded and used in a luciferase reporter assay.
HIF-2α Luciferase Reporter Assay (Serum):
An HRE-luciferase stable reporter 786-0 cell line was maintained in active culture using RPMI 1640 (GIBCO) media supplemented with 1% penicillin-streptomycin, 1% GlutaMAX™, 10% FBS-One Shot (GIBCO) and 4 ug/ml of puromycin (Invitrogen). On the day of the assay, cells were harvested using StemPro™ Accutase™ cell dissociation reagent (GIBCO) and resuspended at 1.5 million cells per milliliter in Opti-MEM™ (GIBCO). 20 ul/well of the resuspended cells were dispensed into a 384 white tissue culture-treated microplate (Corning) and allowed to incubate at 37° C., 5% CO2 for 3 hours. Compounds were prepared by dispensing 0.8 ul of compound in 100% DMSO into a Greiner plate containing 40 ul/well of 100% human serum (Bioreclamation IVT). After 3 hours, media was removed via centrifugation at 500 RPM for 30 seconds and 30 ul/well of compound diluted in human serum was added. The plate was incubated overnight at 37° C., 5% CO2. The following day, ONE-Glo™ was prepared per vendors instructions. The cell plate was removed from the incubator and the human serum was removed from the plate using centrifugation at 500 RPM for 30 seconds. Following the removal of human serum, 40 ul/well of room temperature Opti-MEM™ was added to the plate and allowed to equilibrate to room temperature for 2 hours. 40 ul/well of ONE-Glo™ reagent was added and allowed to incubate for 10 minutes before reading the luminescence signal on the Envision (PerkinElmer). Data was analyzed using 4-parameter logistic equation to generate IC50.

T1 sequence (Q99814 whole entry): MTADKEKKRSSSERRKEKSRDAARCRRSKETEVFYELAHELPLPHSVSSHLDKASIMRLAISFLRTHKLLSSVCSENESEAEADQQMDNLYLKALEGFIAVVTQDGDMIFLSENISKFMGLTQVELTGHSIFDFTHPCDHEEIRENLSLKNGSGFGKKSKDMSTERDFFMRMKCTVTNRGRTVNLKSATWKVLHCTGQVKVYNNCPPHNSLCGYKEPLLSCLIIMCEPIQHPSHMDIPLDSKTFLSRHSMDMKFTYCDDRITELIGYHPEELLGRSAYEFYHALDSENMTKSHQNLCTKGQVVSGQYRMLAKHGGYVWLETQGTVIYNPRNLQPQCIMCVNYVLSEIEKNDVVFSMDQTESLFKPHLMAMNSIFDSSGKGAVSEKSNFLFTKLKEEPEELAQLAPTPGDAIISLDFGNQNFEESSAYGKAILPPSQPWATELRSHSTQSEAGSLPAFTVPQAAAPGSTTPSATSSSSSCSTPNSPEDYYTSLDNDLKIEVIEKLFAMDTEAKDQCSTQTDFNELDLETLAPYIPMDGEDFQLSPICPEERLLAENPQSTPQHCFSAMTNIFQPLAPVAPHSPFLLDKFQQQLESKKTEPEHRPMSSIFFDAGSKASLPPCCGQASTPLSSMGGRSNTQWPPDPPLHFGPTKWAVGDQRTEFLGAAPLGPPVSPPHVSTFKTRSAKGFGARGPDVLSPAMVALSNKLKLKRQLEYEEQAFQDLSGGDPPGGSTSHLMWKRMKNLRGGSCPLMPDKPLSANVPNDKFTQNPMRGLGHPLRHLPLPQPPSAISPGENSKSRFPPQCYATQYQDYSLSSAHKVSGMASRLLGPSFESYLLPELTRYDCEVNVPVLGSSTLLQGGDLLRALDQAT

| pIC50 (HIF-2α [1]) | pIC50 (HIF-2α [2]) | Serum Shift (approximate) (HIF-2α [2]) | Compound |
| --- | --- | --- | --- |
| 6.00 to 7.00 | 6.00 to 7.00 | 2 | O=S1(=O)CC(Cn2nc(C(F)(F)F)c3c2CC(F)(F)[C@H]3O)C1 [Example 57, (4S)-1-[(1,1-dioxothietan-3-yl)methyl]-5,5-difluoro-3-(trifluoromethyl)-4,6-dihydrocyclopenta[c]pyrazol-4-ol] |
| 6.00 to 7.00 | < 6.00 | 7 | O[C@H]1c2c(C(F)(F)F)nn(CC3CC3C(F)(F)F)c2CCC1(F)F (stereo partly drawn) [Example 59, (4S)-5,5-difluoro-3-(trifluoromethyl)-1-[[2-(trifluoromethyl)cyclopropyl]methyl]-6,7-dihydro-4H-indazol-4-ol] |
| > 7.00 | > 7.00 |  | CO[C@H](CCn1nc(C(F)(F)F)c2c1CC(F)(F)[C@H]2O)C(F)(F)F [Example 61, (4S)-5,5-difluoro-1-[(3R)-4,4,4-trifluoro-3-methoxybutyl]-3-(trifluoromethyl)-4,6-dihydrocyclopenta[c]pyrazol-4-ol] |
| 6.00 to 7.00 | 6.00 to 7.00 | 2 | O[C@H]1c2c(C(F)(F)F)nn(CCCOC(F)(F)F)c2C[C@H]1F [Example 62, (4S,5R)-5-fluoro-1-[3-(trifluoromethoxy)propyl]-3-(trifluoromethyl)-5,6-dihydro-4H-cyclopenta[c]pyrazol-4-ol] |
| 6.00 to 7.00 | < 6.00 | 4 | O[C@H]1c2c(C(F)(F)F)nn(CCCOC(F)(F)F)c2C[C@@H]1F [Example 63, (4S,5S)-5-fluoro-1-[3-(trifluoromethoxy)propyl]-3-(trifluoromethyl)-5,6-dihydro-4H-cyclopenta[c]pyrazol-4-ol] |
| > 7.00 | < 6.00 | 12 | O[C@H]1c2c(C(F)(F)F)nn([C@H]3C[C@@]4(CC4(F)F)C3)c2CC1(F)F [Example 64, (4S)-5,5-difluoro-1-[(3r,5r)-1,1-difluorospiro[2.3]hexan-5-yl]-3-(trifluoromethyl)-4,6-dihydrocyclopenta[c]pyrazol-4-ol] |
| 6.00 to 7.00 | < 6.00 | 11 | O[C@H]1c2c(C(F)(F)F)nn([C@H]3C[C@]4(CC4(F)F)C3)c2CC1(F)F [Example 65, (4S)-5,5-difluoro-1-[(3s,5s)-1,1-difluorospiro[2.3]hexan-5-yl]-3-(trifluoromethyl)-4,6-dihydrocyclopenta[c]pyrazol-4-ol] |
| > 7.00 | 6.00 to 7.00 | 6 | O[C@H]1c2c(C(F)(F)F)nn(C3CC4(C3)CC(F)(F)C4)c2CC1(F)F [Example 66, (4S)-1-{6,6-difluorospiro[3.3]heptan-2-yl}-5,5-difluoro-3-(trifluoromethyl)-4,6-dihydrocyclopenta[c]pyrazol-4-ol] |
| 6.00 to 7.00 | 6.00 to 7.00 | 7 | O[C@H]1c2c(C(F)(F)F)nn(C3CC4(C3)CC(F)(F)C4)c2C[C@H]1F [Example 67, (4S,5R)-1-{6,6-difluorospiro[3.3]heptan-2-yl}-5-fluoro-3-(trifluoromethyl)-4,6-dihydrocyclopenta[c]pyrazol-4-ol] |
| 6.00 to 7.00 | 6.00 to 7.00 | 0 | O[C@H]1c2c(C(F)(F)F)nn([C@@H]3C[C@@H](F)[C@@H](F)[C@@H](F)C3)c2CC1(F)F [Example 70, (4S)-5,5-difluoro-1-[(3R,5S)-3,4,5-trifluorocyclohexyl]-3-(trifluoromethyl)-4,6-dihydrocyclopenta[c]pyrazol-4-ol] |
| > 7.00 | < 6.00 | 18 | O[C@H]1c2c(C(F)(F)F)nn([C@H]3C[C@H](F)C[C@H](F)C3)c2CC1(F)F [Example 71, (4S)-1-[(3R,5S)-3,5-difluorocyclohexyl]-5,5-difluoro-3-(trifluoromethyl)-4,6-dihydrocyclopenta[c]pyrazol-4-ol] |
| > 7.00 | < 6.00 | 5 | O[C@H]1c2c(C(F)(F)F)nn(CCc3cnoc3)c2CC1(F)F [Example 75, (4S)-5,5-difluoro-1-[2-(1,2-oxazol-4-yl)ethyl]-3-(trifluoromethyl)-4,6-dihydrocyclopenta[c]pyrazol-4-ol] |
| 6.00 to 7.00 | < 6.00 | 17 | O[C@H]1c2c(C(F)(F)F)nn(CCc3ccsc3)c2CC1(F)F [Example 76, (4S)-5,5-difluoro-1-(2-thiophen-3-ylethyl)-3-(trifluoromethyl)-4,6-dihydrocyclopenta[c]pyrazol-4-ol] |
| > 7.00 | < 6.00 | 10 | O[C@H]1c2c(C(F)(F)F)nn(CCc3ccco3)c2CC1(F)F [Example 77, (4S)-5,5-difluoro-1-[2-(furan-2-yl)ethyl]-3-(trifluoromethyl)-1H,4H,5H,6H-cyclopenta[c]pyrazol-4-ol] |
| > 7.00 | < 6.00 | 8 | O[C@H]1c2c(C(F)(F)F)nn(CCc3ccoc3)c2CC1(F)F [Example 78, (4S)-5,5-difluoro-1-[2-(furan-3-yl)ethyl]-3-(trifluoromethyl)-1H,4H,5H,6H-cyclopenta[c]pyrazol-4-ol] |
| > 7.00 | < 6.00 | 13 | O[C@H]1c2c(C(F)(F)F)nn(CCc3cccc(F)c3)c2CC1(F)F [Example 79, (4S)-5,5-difluoro-1-[2-(3-fluorophenyl)ethyl]-3-(trifluoromethyl)-1H,4H,5H,6H-cyclopenta[c]pyrazol-4-ol] |
| 6.00 to 7.00 | < 6.00 | >41 | O[C@H]1c2c(C(F)(F)F)nn([C@@H]3CCC[C@@H](C(F)(F)F)C3)c2CC1(F)F [Example 80, (4S)-5,5-difluoro-3-(trifluoromethyl)-1-[(1R)-3-(trifluoromethyl)cyclohexyl]-1H,4H,5H,6H-cyclopenta[c]pyrazol-4-ol] |
| 6.00 to 7.00 | < 6.00 | 49 | O[C@H]1c2c(C(F)(F)F)nn([C@H]3CCC[C@H](C(F)(F)F)C3)c2CC1(F)F [Example 81, (4S)-5,5-difluoro-3-(trifluoromethyl)-1-[(1S,3S)-3-(trifluoromethyl)cyclohexyl]-1H,4H,5H,6H-cyclopenta[c]pyrazol-4-ol] |
| 6.00 to 7.00 | < 6.00 | 23 | O[C@H]1c2c(C(F)(F)F)nn([C@@H]3CCC[C@H](C(F)(F)F)C3)c2CC1(F)F [Example 82, (4S)-5,5-difluoro-3-(trifluoromethyl)-1-[(1R,3S)-3-(trifluoromethyl)cyclohexyl]-1H,4H,5H,6H-cyclopenta[c]pyrazol-4-ol] |
| 6.00 to 7.00 | < 6.00 | 3 | C[C@H](C#N)CCn1nc(C(F)(F)F)c2c1C[C@@H](F)[C@H]2O [Example 83, (2S)-4-[(4S,5R)-5-fluoro-4-hydroxy-3-(trifluoromethyl)-1H,4H,5H,6H-cyclopenta[c]pyrazol-1-yl]-2-methylbutanenitrile] |
| 6.00 to 7.00 | < 6.00 | 2 | O=S1(=O)CC(Cn2nc(C(F)(F)F)c3c2C[C@@H](F)[C@H]3O)C1 [Example 84, 3-{[(4S,5R)-5-fluoro-4-hydroxy-3-(trifluoromethyl)-1H,4H,5H,6H-cyclopenta[c]pyrazol-1-yl]methyl}-1λ^6-thietane-1,1-dione] |
| 6.00 to 7.00 | < 6.00 | 6 | O[C@H]1c2c(C(F)(F)F)nn(C3COCC(F)(F)C3)c2CC1(F)F (stereo partly drawn) [Example 85, (4S)-1-(5,5-difluorooxan-3-yl)-5,5-difluoro-3-(trifluoromethyl)-1H,4H,5H,6H-cyclopenta[c]pyrazol-4-ol] |
| 6.00 to 7.00 | 6.00 to 7.00 | 3 | O=S1(=O)CCCC(n2nc(C(F)(F)F)c3c2CC(F)(F)[C@H]3O)C1 (stereo partly drawn) [Example 86, 3-[(4S)-5,5-difluoro-4-hydroxy-3-(trifluoromethyl)-1H,4H,5H,6H-cyclopenta[c]pyrazol-1-yl]-1λ^6-thiane-1,1-dione] |
